biological target: T1, human AXL (Homo sapiens, UniProt P30530); experiment: AXL enzymatic assay (LanthaScreen TR-FRET); assay type: biochemical; conditions: recombinant his-tagged catalytic domain (aa 473-894), 18 μM ATP (around Km), 200 nM Poly GT substrate, 1 h reaction
T1 construct: his-tagged catalytic domain (amino acids 473-894) from insect cells; His tag; purchased Invitrogen PV3971; host or cells: insect cells
T1 sequence (P30530 473-894): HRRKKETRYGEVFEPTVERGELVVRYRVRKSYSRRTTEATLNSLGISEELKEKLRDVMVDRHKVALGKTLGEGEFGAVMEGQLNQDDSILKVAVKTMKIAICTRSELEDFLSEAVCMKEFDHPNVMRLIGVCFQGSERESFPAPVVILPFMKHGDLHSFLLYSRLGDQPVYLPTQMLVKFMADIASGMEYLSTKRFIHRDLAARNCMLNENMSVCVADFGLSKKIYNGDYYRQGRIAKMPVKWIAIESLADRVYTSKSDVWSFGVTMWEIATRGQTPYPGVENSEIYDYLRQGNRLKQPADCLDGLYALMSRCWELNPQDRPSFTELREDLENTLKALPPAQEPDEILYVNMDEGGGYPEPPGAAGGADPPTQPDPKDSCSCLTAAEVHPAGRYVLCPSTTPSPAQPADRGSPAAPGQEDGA
Experimental: Example 3: AXL Enzymatic Assay
Compounds were tested in a LanthaScreen™ time-resolved fluorescence energy transfer (TR-FRET) enzymatic assay from Invitrogen. The assay used human AXL (Invitrogen, Cat. PV3971) recombinantly expressed his-tagged catalytic domain (amino acids 473-894) from insect cells. The substrate was fluorescein-labeled Poly GT (Invitrogen, Cat. PV3610). Test compounds were prepared and diluted in DMSO in 3-fold serial dilutions to 100× of the final testing concentrations. The compounds were then further diluted to 4× by the kinase reaction buffer (Invitrogen, Cat. PV3189). The enzymatic reaction for compound testing was performed in a white 384-well polypropylene plate (Packard, Cat. 6005214) with a total reaction volume of 10 μl containing 200 ng/ml AXL, 200 nM substrate, and 18 μM ATP that is around its Km. The assay started with loading 2.5 μl of AXL diluted in kinase reaction buffer to wells, followed by addition of equal volume of 4× compounds for 15-min incubation at the room temperature for pre-treatment. The enzymatic reaction was initiated by addition of 5 μl of mixture of the substrate and ATP prepared in kinase reaction buffer. After one hour reaction, 10 μl mixture of EDTA (final 10 mM) and terbium-labeled anti-PY20 antibody (final 2 nM) (Invitrogen, Cat. PV3552) prepared in TR-FRET antibody dilution buffer (Invitrogen, Cat. PV3574) was added to stop the enzymatic reaction and produce TR-FRET signals. After 30 minutes of incubation at room temperature, the plate was read in Tecan Infinite F200 Pro with the following settings: Excitation 340 nm (30)/Emission1 495 nm (10)/Emission2 520 nm (25). The TR-FRET values were dimensionless numbers that were calculated as the ratio of the acceptor ([…]) signal to the donor (Terbium) signal. Percent of control was calculated as the percentage of compound-treated vs 1% DMSO vehicle-treated. The dose-response curves were generated and the IC50s were calculated by nonlinear sigmoid curve fitting using GraphPad Prism.

First: CC(C)Oc1ccccc1-n1ccc2cnc(Nc3ccc4c(c3)CCC(N3CCCC3)CC4)nc21 (stereo not drawn) [Compound 1, 7-(2-isopropoxyphenyl)-N-(7-(pyrrolidin-1-yl)-6,7,8,9-tetrahydro-5H-benzo[7]annulen-2-yl)-7H-pyrrolo[2,3-d]pyrimidin-2-amine]
Second: CC(C)Oc1cc(Cl)ccc1-n1ccc2cnc(Nc3ccc4c(c3)CCC(N3CCCC3)CC4)nc21 (stereo not drawn) [Compound 10, 7-(4-chloro-2-isopropoxyphenyl)-N-(7-(pyrrolidin-1-yl)-6,7,8,9-tetrahydro-5H-benzo[7]annulen-2-yl)-7H-pyrrolo[2,3-d]pyrimidin-2-amine]
The IC50 of the first is higher: 0.025 to 0.05 µM for the first, under 0.025 µM for the second.

First: CC(C)Oc1ccccc1-n1ccc2cnc(Nc3cnn(C4CCN(C)CC4)c3)nc21 [Compound 2, 7-(2-isopropoxyphenyl)-N-(1-(1-methylpiperidin-4-yl)-1H-pyrazol-4-yl)-7H-pyrrolo[2,3-d]pyrimidin-2-amine]
Second: CC(C)Oc1ccccc1-n1ccc2cnc(Nc3ccc4c(c3)CCN(C)CC4)nc21 [Compound 15, N-(7-(2-isopropoxyphenyl)-7H-pyrrolo[2,3-d]pyrimidin-2-yl)-3-methyl-2,3,4,5-tetrahydro-1H-benzo[d]azepin-7-amine]
The IC50 of the first is higher: 0.7 to 0.8 µM for the first, 0.2 to 0.4 µM for the second.

Compared with `CC(C)Oc1cccc(-n2ccc3cnc(Nc4ccc5c(c4)CCC(N4CCCC4)CC5)nc32)c1` (stereo not drawn) [Compound 3, 7-(3-isopropoxyphenyl)-N-(7-(pyrrolidin-1-yl)-6,7,8,9-tetrahydro-5H-benzo[7]annulen-2-yl)-7H-pyrrolo[2,3-d]pyrimidin-2-amine], `CC(C)Oc1ccc(-n2ccc3cnc(Nc4ccc5c(c4)CCC(N4CCCC4)CC5)nc32)cc1` (stereo not drawn) [Compound 7, 7-(4-isopropoxyphenyl)-N-(7-(pyrrolidin-1-yl)-6,7,8,9-tetrahydro-5H-benzo[7]annulen-2-yl)-7H-pyrrolo[2,3-d]pyrimidin-2-amine] is lower in IC50: 0.05 to 0.2 µM for the first, 0.025 to 0.05 µM for the second.

First: c1ccc(-n2ccc3cnc(Nc4ccc5c(c4)CCC(N4CCCC4)CC5)nc32)c(OC2CCCCC2)c1 (stereo not drawn) [Compound 4, 7-(2-(cyclohexyloxy)phenyl)-N-(7-(pyrrolidin-1-yl)-6,7,8,9-tetrahydro-5H-benzo[7]annulen-2-yl)-7H-pyrrolo[2,3-d]pyrimidin-2-amine]
Second: CC(C)NC(=O)c1ccccc1-n1ccc2cnc(Nc3ccc4c(c3)CCC(N3CCCC3)CC4)nc21 (stereo not drawn) [Compound 11, N-isopropyl-2-(2-((7-(pyrrolidin-1-yl)-6,7,8,9-tetrahydro-5H-benzo[7]annulen-2-yl)amino)-7H-pyrrolo[2,3-d]pyrimidin-7-yl)benzamide]
The IC50 of the first is lower: 0.2 to 0.4 µM for the first, over 1 µM for the second. The first is the more potent here.

First: c1ccc(Oc2ccccc2-n2ccc3cnc(Nc4ccc5c(c4)CCC(N4CCCC4)CC5)nc32)cc1 (stereo not drawn) [Compound 5, 7-(2-phenoxyphenyl)-N-(7-(pyrrolidin-1-yl)-6,7,8,9-tetrahydro-5H-benzo[7]annulen-2-yl)-7H-pyrrolo[2,3-d]pyrimidin-2-amine]
Second: Cc1ccccc1Oc1ccccc1-n1ccc2cnc(Nc3ccc4c(c3)CCC(N3CCCC3)CC4)nc21 (stereo not drawn) [Compound 6, N-(7-(pyrrolidin-1-yl)-6,7,8,9-tetrahydro-5H-benzo[7]annulen-2-yl)-7-(2-(o-tolyloxy)phenyl)-7H-pyrrolo[2,3-d]pyrimidin-2-amine]
The IC50 of the first is higher: 0.7 to 0.8 µM for the first, under 0.025 µM for the second. The second is the more potent here.

Compared with `c1ccc(-c2ccc(-n3ccc4cnc(Nc5ccc6c(c5)CCC(N5CCCC5)CC6)nc43)cc2)cc1` (stereo not drawn) [Compound 8, 7-([1,1′-biphenyl]-4-yl)-N-(7-(pyrrolidin-1-yl)-6,7,8,9-tetrahydro-5H-benzo[7]annulen-2-yl)-7H-pyrrolo[2,3-d]pyrimidin-2-amine], `Cc1ccccc1-c1ccc(-n2ccc3cnc(Nc4ccc5c(c4)CCC(N4CCCC4)CC5)nc32)cc1` (stereo not drawn) [Compound 12, 7-(2′-methyl-[1,1′-biphenyl]-4-yl)-N-(7-(pyrrolidin-1-yl)-6,7,8,9-tetrahydro-5H-benzo[7]annulen-2-yl)-7H-pyrrolo[2,3-d]pyrimidin-2-amine] is lower in IC50: over 1 µM for the first, 0.025 to 0.05 µM for the second. The second is the more potent here.

First: COc1ccc(-n2ccc3cnc(Nc4ccc5c(c4)CCC(N4CCCC4)CC5)nc32)c(OC(C)C)c1 (stereo not drawn) [Compound 9, 7-(2-isopropoxy-4-methoxyphenyl)-N-(7-(pyrrolidin-1-yl)-6,7,8,9-tetrahydro-5H-benzo[7]annulen-2-yl)-7H-pyrrolo[2,3-d]pyrimidin-2-amine]
Second: CC(C)Oc1cc(-c2ccccc2)ccc1-n1ccc2cnc(Nc3ccc4c(c3)CCC(N3CCCC3)CC4)nc21 (stereo not drawn) [Compound 14, 7-(3-isopropoxy-[1,1′-biphenyl]-4-yl)-N-(7-(pyrrolidin-1-yl)-6,7,8,9-tetrahydro-5H-benzo[7]annulen-2-yl)-7H-pyrrolo[2,3-d]pyrimidin-2-amine]
The IC50 of the first is lower: 0.05 to 0.2 µM for the first, 0.2 to 0.4 µM for the second.

With `CC(C)Oc1cccnc1-n1ccc2cnc(Nc3ccc4c(c3)CCC(N3CCCC3)CC4)nc21` (stereo not drawn) [Compound 13, 7-(3-isopropoxypyridin-2-yl)-N-(7-(pyrrolidin-1-yl)-6,7,8,9-tetrahydro-5H-benzo[7]annulen-2-yl)-7H-pyrrolo[2,3-d]pyrimidin-2-amine] the IC50 was 0.2 to 0.4 µM.

— patent US20170137426A1, “HETEROCYCLIC COMPOUNDS AS AXL INHIBITORS” (CHANGZHOU JIEKAI PHARMATECH CO., LTD., priority 2014, published 2017)
